Source: ChEMBL document CHEMBL2062461 (Eur J Med Chem, 2012)

Columns and labels:
Acetylcholinesterase [1] = target: T1, Acetylcholinesterase (Homo sapiens, UniProt P22303)
Description: Inhibition of human recombinant AChE using acetylthiocholine substrate preincubated for 5 mins before substrate addition by Ellman's method

Acetylcholinesterase [2] = target: T1, Acetylcholinesterase; remark: listed apart in the source
Description: Inhibition of human recombinant AChE assessed as dissociation constant for enzyme-inhibitor-substrate complex using acetylthiocholine substrate preincubated for 5 mins before substrate addition by Ellman's method

Cholinesterase = Cholinesterase (Homo sapiens, UniProt P06276)
Description: Inhibition of human plasmatic BChE using butylthiocholne substrate preincubated for 5 mins before substrate addition by Ellman's method

Acetylcholinesterase [3] = target: T1, Acetylcholinesterase; remark: listed apart in the source
Description: Inhibition of human recombinant AChE assessed as dissociation constant for enzyme-inhibitor complex using acetylthiocholine substrate preincubated for 5 mins before substrate addition by Ellman's method

T1 sequence (P22303 whole entry): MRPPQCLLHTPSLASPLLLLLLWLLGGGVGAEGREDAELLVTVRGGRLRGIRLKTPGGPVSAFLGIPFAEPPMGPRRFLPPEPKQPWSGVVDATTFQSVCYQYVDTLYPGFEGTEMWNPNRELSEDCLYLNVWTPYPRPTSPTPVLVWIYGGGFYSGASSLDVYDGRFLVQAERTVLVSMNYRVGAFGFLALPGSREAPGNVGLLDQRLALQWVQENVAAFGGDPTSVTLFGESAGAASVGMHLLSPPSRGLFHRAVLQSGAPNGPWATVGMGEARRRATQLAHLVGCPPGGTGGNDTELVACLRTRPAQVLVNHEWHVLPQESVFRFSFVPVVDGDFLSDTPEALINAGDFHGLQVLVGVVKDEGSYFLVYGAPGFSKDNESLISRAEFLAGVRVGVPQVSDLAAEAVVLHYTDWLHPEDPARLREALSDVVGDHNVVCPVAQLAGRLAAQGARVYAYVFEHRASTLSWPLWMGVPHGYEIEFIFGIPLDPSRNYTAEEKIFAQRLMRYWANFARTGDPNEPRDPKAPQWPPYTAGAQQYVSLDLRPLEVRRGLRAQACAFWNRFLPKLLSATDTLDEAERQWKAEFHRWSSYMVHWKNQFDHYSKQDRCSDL
Chain of Cholinesterase (P06276 whole entry): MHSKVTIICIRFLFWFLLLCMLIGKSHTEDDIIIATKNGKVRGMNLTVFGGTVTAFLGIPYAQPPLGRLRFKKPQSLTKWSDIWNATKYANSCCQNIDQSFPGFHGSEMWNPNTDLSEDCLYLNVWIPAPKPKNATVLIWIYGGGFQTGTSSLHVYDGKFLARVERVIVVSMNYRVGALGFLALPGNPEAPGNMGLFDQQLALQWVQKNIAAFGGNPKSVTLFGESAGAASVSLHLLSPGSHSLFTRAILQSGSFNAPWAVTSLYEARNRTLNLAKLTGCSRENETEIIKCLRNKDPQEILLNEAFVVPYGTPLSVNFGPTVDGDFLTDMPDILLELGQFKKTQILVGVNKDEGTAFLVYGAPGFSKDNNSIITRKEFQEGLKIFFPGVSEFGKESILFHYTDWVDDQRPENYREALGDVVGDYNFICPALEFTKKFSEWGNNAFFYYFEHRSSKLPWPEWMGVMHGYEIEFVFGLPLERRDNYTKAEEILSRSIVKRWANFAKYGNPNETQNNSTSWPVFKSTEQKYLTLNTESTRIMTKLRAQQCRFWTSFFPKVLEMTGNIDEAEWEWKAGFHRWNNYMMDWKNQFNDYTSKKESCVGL

SMILES | IC50 (Acetylcholinesterase [1]) [nM] | Ki (Acetylcholinesterase [2]) [nM] | IC50 (Cholinesterase) [nM] | Ki (Acetylcholinesterase [3]) [nM]
CCN(CCC(=O)N1CCN(CCNc2c3c(nc4ccccc24)CCCC3)CC1)C1CCCCC1 | 4.97 | 3.73 | 41.2 | 1.35
CN(CCC(=O)N1CCN(CCNc2c3c(nc4ccccc24)CCCC3)CC1)C1CCCCC1 | 14.9 | 0.318 | 63.7 | 0.38
CN(CCCN1CCN(CCNc2c3c(nc4ccccc24)CCCC3)CC1)c1ccccc1 | 84.8 | 24.7 | 211 | 80
CN(CCCN1CCN(CCNc2c3c(nc4ccccc24)CCCC3)CC1)C1CCCCC1 | 40.7 | 47.6 | 137 | 10.3
O=C(CCN1CCCCC1)N1CCN(CCNc2c3c(nc4ccccc24)CCCC3)CC1 | 51.7 | 76.1 | 77.8 | 16.8
CCN(CCCN1CCN(CCNc2c3c(nc4ccccc24)CCCC3)CC1)C1CCCCC1 | 194 |  | 126 | 
CN(CCC(=O)N1CCN(CCNc2c3c(nc4ccccc24)CCCC3)CC1)c1ccccc1 | 70.3 | 85.5 | 33.7 | 13.7
O=C(CCNCCNc1c2c(nc3ccccc13)CCCC2)N1CCN(CCNc2c3c(nc4ccccc24)CCCC3)CC1 | 4.49 |  | 1520 | 
